From patent US10865208B2, “ATG7 inhibitors and the uses thereof” (Millennium Pharmaceuticals, Inc., priority 2016, dated 2020) come the findings set out here.

SMILES strings stand for the structures.

In this assay the target is recombinant human His-ATG7 enzyme (Homo sapiens (Human), UniProt O95352). The assay is described as follows: ATG7 Enzyme Assay (HTRF/FRET, ATG3-GST and Flag-Gabarap). The conditions noted are these: for inhibition at 0.111 µM: Concentration 0.111 μM; for inhibition at 0.111 µM / inhibition at 0.123 µM / inhibition at 0.069 µM: read-out: Percent Inhibition; for inhibition at 0.123 µM: Concentration 0.123 μM; for inhibition at 0.069 µM: Concentration 0.069 μM. It is filed as biochemical. The method in brief:
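0.15 nM His-ATG7 was reacted with 5 nM ATG3-GST, 5 nM Flag-Gabarap and 10 μM ATP in HEPES pH 7.5 containing MgCl2, GSH and TCEP for 105 min at 24° C, then stopped with EDTA/KF. Eu-anti-Flag and anti-GST-APC HTRF was read after 2 h. Results are given as single-concentration % inhibition or IC50.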
A general note: In TR-FRET formats the signal depends on donor and acceptor labels being close together.

Chain of recombinant human His-ATG7 enzyme (O95352 whole entry): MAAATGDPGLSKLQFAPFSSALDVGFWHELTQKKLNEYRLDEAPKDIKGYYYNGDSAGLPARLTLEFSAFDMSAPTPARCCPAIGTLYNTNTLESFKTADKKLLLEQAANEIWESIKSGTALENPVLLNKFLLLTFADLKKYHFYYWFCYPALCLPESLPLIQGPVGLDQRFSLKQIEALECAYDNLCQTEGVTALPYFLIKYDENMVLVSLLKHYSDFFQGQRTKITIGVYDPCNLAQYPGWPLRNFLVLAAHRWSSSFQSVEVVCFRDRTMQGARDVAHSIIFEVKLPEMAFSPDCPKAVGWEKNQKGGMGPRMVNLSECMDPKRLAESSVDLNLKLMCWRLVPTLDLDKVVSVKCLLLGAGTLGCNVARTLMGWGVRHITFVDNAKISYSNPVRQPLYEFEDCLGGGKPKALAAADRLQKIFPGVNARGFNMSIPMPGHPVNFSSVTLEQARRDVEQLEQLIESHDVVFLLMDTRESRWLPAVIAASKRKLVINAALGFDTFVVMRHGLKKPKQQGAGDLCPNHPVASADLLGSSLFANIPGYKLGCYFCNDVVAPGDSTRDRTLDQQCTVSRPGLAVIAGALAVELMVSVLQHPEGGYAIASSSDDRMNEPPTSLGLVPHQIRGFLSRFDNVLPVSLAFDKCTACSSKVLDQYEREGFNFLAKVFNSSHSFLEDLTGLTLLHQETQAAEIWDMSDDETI

With `Nc1ncnc2c1c(Sc1c[nH]c3ccccc13)nn2[C@H]1C[C@H](O)[C@@H](COS(N)(=O)=O)O1` [Compound I-170, {(2R,3S,5R)-5-[4-amino-3-(1H-indol-3-ylsulfanyl)-1H-pyrazolo[3,4-d]pyrimidin-1-yl]-3-hydroxytetrahydrofuran-2-yl}methyl sulfamate], the IC50 (usually the concentration that gives 50% inhibition) lay within 100 to 500 nM and the inhibition (as a rule, the percentage by which the read-out fell short of the control) at 0.111 µM came to 50%.

Consider `CC(O)CSc1nn([C@@H]2O[C@H](COS(N)(=O)=O)[C@@H](O)[C@H]2O)c2ncnc(N)c12` (single isomer, unassigned) [Compound I-55b, [(2R,3S,4R,5R)-5-(4-amino-3-{[(2R)-2-hydroxypropyl]sulfanyl}-1H-pyrazolo[3,4-d]pyrimidin-1-yl)-3,4-dihydroxytetrahydrofuran-2-yl]methyl sulfamate or [(2R,3S,4R,5R)-5-(4-amino-3-{[(2S)-2-hydroxypropyl]sulfanyl}-1H-pyrazolo[3,4-d]pyrimidin-1-yl)-3,4-dihydroxytetrahydrofuran-2-yl]methyl Sulfamate], for which the IC50 fell in the range of 50 to 100 nM and the inhibition at 0.123 µM amounted to 68%.

Regarding `CSc1nn([C@@H]2O[C@@H](COS(N)(=O)=O)[C@@H](O)[C@@H]2F)c2ncnc(N)c12` [Compound I-96, {(2S,3R,4S,5R)-5-[4-amino-3-(methylsulfanyl)-1H-pyrazolo[3,4-d]pyrimidin-1-yl]-4-fluoro-3-hydroxytetrahydrofuran-2-yl}methyl Sulfamate], the IC50 is 100 to 500 nM and the inhibition at 0.111 µM came to 44%.

On to `Nc1ncnc2c1c(SC(F)F)nn2[C@@H]1O[C@H](COS(N)(=O)=O)[C@@H](O)[C@@H]1F` [Compound I-98, [(2R,3R,4S,5R)-5-{4-amino-3-[(difluoromethyl)sulfanyl]-1H-pyrazolo[3,4-d]pyrimidin-1-yl}-4-fluoro-3-hydroxytetrahydrofuran-2-yl]methyl sulfamate], for which the IC50 was in the range of 20 to 50 nM and the inhibition at 0.111 µM stood at 77%.

In the case of `CC(Sc1nn([C@@H]2O[C@H](COS(N)(=O)=O)[C@@H](O)[C@H]2O)c2ncnc(N)c12)c1ccccc1` (mixture of isomers) [Compound I-70, [(2R,3S,4R,5R)-5-(4-amino-3-{[(1R)-1-phenylethyl]sulfanyl}-1H-pyrazolo[3,4-d]pyrimidin-1-yl)-3,4-dihydroxytetrahydrofuran-2-yl]methyl sulfamate and [(2R,3S,4R,5R)-5-(4-amino-3-{[(1S)-1-phenylethyl]sulfanyl}-1H-pyrazolo[3,4-d]pyrimidin-1-yl)-3,4-dihydroxytetrahydrofuran-2-yl]methyl sulfamate], the IC50 fell in the range of 50 to 100 nM and the inhibition at 0.123 µM turned out to be 70%.

With `Nc1ncnc2c1c(Sc1ccc(OC(F)(F)F)cc1)nn2[C@H]1C[C@H](O)[C@@H](COS(N)(=O)=O)O1` [Compound I-197, [(2R,3S,5R)-5-(4-amino-3-{[4-(trifluoromethoxy)phenyl]sulfanyl}-1H-pyrazolo[3,4-d]pyrimidin-1-yl)-3-hydroxytetrahydrofuran-2-yl]methyl sulfamate], the concentration for half-maximal inhibition (IC50) was 100 to 500 nM and the inhibition at 0.111 µM turned out to be 45%.

Consider `Nc1ncnc2c1c(SCC1(O)CCCCC1)nn2[C@@H]1O[C@H](COS(N)(=O)=O)[C@@H](O)[C@H]1O` [Compound I-86, [(2R,3S,4R,5R)-5-(4-amino-3-{[(1-hydroxycyclohexyl)methyl]sulfanyl}-1H-pyrazolo[3,4-d]pyrimidin-1-yl)-3,4-dihydroxytetrahydrofuran-2-yl]methyl Sulfamate], for which the IC50 lay within 50 to 100 nM and the inhibition at 0.123 µM is 64%.

With `Cn1cc(CSc2nn([C@@H]3O[C@H](COS(N)(=O)=O)[C@@H](O)[C@@H]3F)c3ncnc(N)c23)cn1` [Compound I-145, [(2R,3R,4S,5R)-5-(4-amino-3-{[(1-methyl-1H-pyrazol-4-yl)methyl]sulfanyl}-1H-pyrazolo[3,4-d]pyrimidin-1-yl)-4-fluoro-3-hydroxytetrahydrofuran-2-yl]methyl sulfamate], the IC50 was in the range of 20 to 50 nM and the inhibition at 0.111 µM stood at 74%.

Take `Cc1ccc(Sc2nn([C@H]3C[C@H](O)[C@@H](COS(N)(=O)=O)O3)c3ncnc(N)c23)c(F)c1` [Compound I-161, [(2R,3S,5R)-5-{4-amino-3-[(2-fluoro-4-methylphenyl)sulfanyl]-1H-pyrazolo[3,4-d]pyrimidin-1-yl}-3-hydroxytetrahydrofuran-2-yl]methyl Sulfamate]: the IC50 lay within 50 to 100 nM and the inhibition at 0.111 µM was determined as 59%.

Regarding `Nc1ncnc2c1c(SCCO)nn2[C@@H]1O[C@H](COS(N)(=O)=O)[C@@H](O)[C@@H]1F` [Compound I-151, [(2R,3R,4S,5R)-5-{4-amino-3-[(2-hydroxyethyl)sulfanyl]-1H-pyrazolo[3,4-d]pyrimidin-1-yl}-4-fluoro-3-hydroxytetrahydrofuran-2-yl]methyl Sulfamate], the inhibition at 0.111 µM came to 76%.

As for `Nc1ncnc2c1c(C(F)(F)F)nn2[C@@H]1O[C@H](COS(N)(=O)=O)[C@@H](O)[C@H]1O` [Compound I-10, {(2R,3S,4R,5R)-5-[4-amino-3-(trifluoromethyl)-1H-pyrazolo[3,4-d]pyrimidin-1-yl]-3,4-dihydroxytetrahydrofuran-2-yl}methyl Sulfamate], the IC50 was in the range of 50 to 100 nM and the inhibition at 0.069 µM was 48%.

In the case of `COc1nn([C@H]2C[C@H](O)[C@@H](COS(N)(=O)=O)O2)c2ncnc(N)c12` [Compound I-190, [(2R,3S,5R)-5-(4-amino-3-methoxy-1H-pyrazolo[3,4-d]pyrimidin-1-yl)-3-hydroxytetrahydrofuran-2-yl]methyl Sulfamate], the IC50 is 100 to 500 nM and the inhibition at 0.123 µM is 35%.

Turning to `COc1cccc(Sc2nn([C@@H]3O[C@H](COS(N)(=O)=O)[C@@H](O)[C@@H]3F)c3ncnc(N)c23)n1` [Compound I-107, [(2R,3R,4S,5R)-5-{4-amino-3-[(6-methoxypyridin-2-yl)sulfanyl]-1H-pyrazolo[3,4-d]pyrimidin-1-yl}-4-fluoro-3-hydroxytetrahydrofuran-2-yl]methyl sulfamate], the IC50 fell in the range of 50 to 100 nM and the inhibition at 0.111 µM came out at 61%.

For `Nc1ncnc2c1c(C(F)F)nn2[C@@H]1O[C@H](COS(N)(=O)=O)[C@@H](O)[C@H]1O` [Compound I-25, {(2R,3S,4R,5R)-5-[4-amino-3-(difluoromethyl)-1H-pyrazolo[3,4-d]pyrimidin-1-yl]-3,4-dihydroxytetrahydrofuran-2-yl}methyl Sulfamate], the IC50 was in the range of 50 to 100 nM and the inhibition at 0.123 µM worked out at 64%.

On to `C#Cc1nn([C@@H]2O[C@H](COS(N)(=O)=O)[C@@H](O)[C@H]2O)c2ncnc(N)c12` [Compound I-9, [(2R,3S,4R,5R)-5-(4-amino-3-ethynyl-1H-pyrazolo[3,4-d]pyrimidin-1-yl)-3,4-dihydroxytetrahydrofuran-2-yl]methyl Sulfamate], for which the IC50 lay in the range of 50 to 100 nM and the inhibition at 0.069 µM was determined as 52%.

Turning to `Nc1ncnc2c1c(SC(F)(F)F)nn2[C@@H]1O[C@H](COS(N)(=O)=O)[C@@H](O)[C@@H]1F` [Compound I-142, [(2R,3R,4S,5R)-5-{4-amino-3-[(trifluoromethyl)sulfanyl]-1H-pyrazolo[3,4-d]pyrimidin-1-yl}-4-fluoro-3-hydroxytetrahydrofuran-2-yl]methyl sulfamate], the IC50 was in the range of 50 to 100 nM and the inhibition at 0.111 µM was determined as 57%.
